Data as given in ChEMBL document CHEMBL3797190, “Development of 3,5-Dinitrobenzylsulfanyl-1,3,4-oxadiazoles and Thiadiazoles as Selective Antitubercular Agents Active Against Replicating and Nonreplicating Mycobacterium tuberculosis” (J Med Chem, 2016).
Converted amounts (≈) assume the structure as drawn.

Legend:
[1] = system: Mycobacterium tuberculosis; assay: Antimycobacterial activity against multi drug resistant Mycobacterium tuberculosis 234/2005 after 21 days by microdilution method; assay type: functional; conditions: 234/2005, 504 h
[2] = system: Mycobacterium tuberculosis; assay: Antimycobacterial activity against multi drug resistant Mycobacterium tuberculosis 9449/2007 after 14 days by microdilution method; assay type: functional; conditions: for MIC99: 9449/2007, 336 h
[3] = system: Mycobacterium tuberculosis; assay: microbe, parasite or virus in culture; conditions: 234/2005, 336 h
[4] = system: Mycobacterium tuberculosis; assay: Antimycobacterial activity against multi drug resistant Mycobacterium tuberculosis Praha 1 after 14 days by microdilution method; assay type: functional; conditions: for MIC99: Praha 1, 336 h
[5] = system: Mycobacterium tuberculosis; assay: Antimycobacterial activity against multi drug resistant Mycobacterium tuberculosis Praha 131 after 14 days by microdilution method; assay type: functional; conditions: for MIC99: Praha 131, 336 h
[6] = system: Mycobacterium tuberculosis; assay: Antimycobacterial activity against multi drug resistant Mycobacterium tuberculosis Praha 4 after 14 days by microdilution method; conditions: Praha 4, 336 h
[7] = system: Mycobacterium tuberculosis; assay: Antimycobacterial activity against multi drug resistant Mycobacterium tuberculosis 8666/2010 after 14 days by microdilution method; assay type: functional; conditions: for MIC99: 8666/2010, 336 h
[8] = system: Mycobacterium tuberculosis; assay: Antimycobacterial activity against multi drug resistant Mycobacterium tuberculosis Praha 1 after 21 days by microdilution method; assay type: functional; conditions: Praha 1, 504 h
[9] = system: Mycobacterium tuberculosis; assay: Antimycobacterial activity against multi drug resistant Mycobacterium tuberculosis Praha 4 after 21 days by microdilution method; assay type: functional; conditions: Praha 4, 504 h
[10] = system: Mycobacterium tuberculosis; assay: Antimycobacterial activity against multi drug resistant Mycobacterium tuberculosis 9449/2007 after 21 days by microdilution method; assay type: functional; conditions: 9449/2007, 504 h
[11] = system: Mycobacterium tuberculosis; assay: Antimycobacterial activity against multi drug resistant Mycobacterium tuberculosis 8666/2010 after 21 days by microdilution method; assay type: functional; conditions: 8666/2010, 504 h
[12] = system: Mycobacterium tuberculosis; assay: Antimycobacterial activity against multi drug resistant Mycobacterium tuberculosis Praha 131 after 21 days by microdilution method; assay type: functional; conditions: Praha 131, 504 h

COc1ccc(-c2nnc(SCc3cc([N+](=O)[O-])cc([N+](=O)[O-])c3)s2)cc1
MIC99 [1]: 0.25 µM (≈ 0.101 µg/mL) | MIC99 [2]: 0.125 µM (≈ 0.0506 µg/mL) | MIC99 [3]: 0.125 µM (≈ 0.0506 µg/mL) | MIC99 [4]: 0.125 µM (≈ 0.0506 µg/mL) | MIC99 [5]: 0.125 µM (≈ 0.0506 µg/mL) | MIC99 [6]: 0.125 µM (≈ 0.0506 µg/mL) | MIC99 [7]: 0.06 µM (≈ 0.0243 µg/mL) | MIC99 [8]: 0.25 µM (≈ 0.101 µg/mL) | MIC99 [9]: 0.25 µM (≈ 0.101 µg/mL) | MIC99 [10]: 0.25 µM (≈ 0.101 µg/mL) | MIC99 [11]: 0.125 µM (≈ 0.0506 µg/mL) | MIC99 [12]: 0.25 µM (≈ 0.101 µg/mL)

CO[C@H]1/C=C/O[C@@]2(C)Oc3c(C)c(O)c4c(O)c(c(/C=N/N5CCN(C)CC5)c(O)c4c3C2=O)NC(=O)/C(C)=C\C=C\[C@H](C)[C@H](O)[C@@H](C)[C@@H](O)[C@@H](C)[C@H](OC(C)=O)[C@@H]1C [RIFAMPIN]
MIC99 [2]: > 8 µM | MIC99 [3]: > 8 µM | MIC99 [4]: > 8 µM | MIC99 [5]: > 8 µM | MIC99 [6]: > 8 µM | MIC99 [7]: > 8 µM

CN[C@@H]1[C@H](O[C@H]2[C@H](O[C@H]3[C@H](O)[C@@H](O)[C@H](N=C(N)N)[C@@H](O)[C@@H]3N=C(N)N)O[C@@H](C)[C@]2(O)C=O)O[C@@H](CO)[C@H](O)[C@H]1O [STREPTOMYCIN]
MIC99 [2]: > 32 µM | MIC99 [5]: > 32 µM | MIC99 [6]: > 32 µM | MIC99 [7]: > 32 µM

O=[N+]([O-])c1cc(CSc2nnc(-c3ccc(Cl)cc3)s2)cc([N+](=O)[O-])c1
MIC99 [1]: 0.5 µM (≈ 0.204 µg/mL) | MIC99 [2]: 0.25 µM (≈ 0.102 µg/mL) | MIC99 [3]: 0.5 µM (≈ 0.204 µg/mL) | MIC99 [4]: 0.25 µM (≈ 0.102 µg/mL) | MIC99 [5]: 0.5 µM (≈ 0.204 µg/mL) | MIC99 [6]: 0.25 µM (≈ 0.102 µg/mL) | MIC99 [7]: 0.25 µM (≈ 0.102 µg/mL) | MIC99 [8]: 0.5 µM (≈ 0.204 µg/mL) | MIC99 [9]: 0.5 µM (≈ 0.204 µg/mL) | MIC99 [10]: 0.5 µM (≈ 0.204 µg/mL) | MIC99 [11]: 0.5 µM (≈ 0.204 µg/mL) | MIC99 [12]: 0.5 µM (≈ 0.204 µg/mL)

COc1ccc(-c2nnc(SCc3cc([N+](=O)[O-])cc([N+](=O)[O-])c3)o2)cc1
MIC99 [2]: 0.06 µM (≈ 0.0233 µg/mL) | MIC99 [3]: 0.06 µM (≈ 0.0233 µg/mL) | MIC99 [4]: 0.06 µM (≈ 0.0233 µg/mL) | MIC99 [5]: 0.06 µM (≈ 0.0233 µg/mL) | MIC99 [6]: 0.06 µM (≈ 0.0233 µg/mL) | MIC99 [7]: 0.06 µM (≈ 0.0233 µg/mL) | MIC99 [11]: 0.06 µM (≈ 0.0233 µg/mL)

GENTAMICIN
MIC>99 [2]: 1 µM | MIC>99 [4]: 1 µM | MIC>99 [5]: > 8 µM | MIC>99 [7]: 2 µM

NCC[C@H](O)C(=O)N[C@@H]1C[C@H](N)[C@@H](O[C@H]2O[C@H](CN)[C@@H](O)[C@H](O)[C@H]2O)[C@H](O)[C@H]1O[C@H]1O[C@H](CO)[C@@H](O)[C@H](N)[C@H]1O [AMIKACIN]
MIC99 [5]: > 32 µM

CC1COc2c(N3CCN(C)CC3)c(F)cc3c(=O)c(C(=O)O)cn1c23 (stereo unspecified) [OFLOXACIN]
MIC99 [6]: > 16 µM

O=[N+]([O-])c1cc(CSc2nnc(-c3ccccc3)o2)cc([N+](=O)[O-])c1
MIC99 [3]: ≤ 0.03 µM | MIC99 [5]: ≤ 0.03 µM | MIC99 [6]: ≤ 0.03 µM | MIC99 [7]: ≤ 0.03 µM
